{"source": "patent US9932340B2", "about": "“Substituted indoles” (AbbVie Inc., priority 2014, dated 2018)", "data": [{"target": "SUV420H1 enzyme (Homo sapiens, UniProt Q4FZB7)", "sequence (Q4FZB7 whole entry)": "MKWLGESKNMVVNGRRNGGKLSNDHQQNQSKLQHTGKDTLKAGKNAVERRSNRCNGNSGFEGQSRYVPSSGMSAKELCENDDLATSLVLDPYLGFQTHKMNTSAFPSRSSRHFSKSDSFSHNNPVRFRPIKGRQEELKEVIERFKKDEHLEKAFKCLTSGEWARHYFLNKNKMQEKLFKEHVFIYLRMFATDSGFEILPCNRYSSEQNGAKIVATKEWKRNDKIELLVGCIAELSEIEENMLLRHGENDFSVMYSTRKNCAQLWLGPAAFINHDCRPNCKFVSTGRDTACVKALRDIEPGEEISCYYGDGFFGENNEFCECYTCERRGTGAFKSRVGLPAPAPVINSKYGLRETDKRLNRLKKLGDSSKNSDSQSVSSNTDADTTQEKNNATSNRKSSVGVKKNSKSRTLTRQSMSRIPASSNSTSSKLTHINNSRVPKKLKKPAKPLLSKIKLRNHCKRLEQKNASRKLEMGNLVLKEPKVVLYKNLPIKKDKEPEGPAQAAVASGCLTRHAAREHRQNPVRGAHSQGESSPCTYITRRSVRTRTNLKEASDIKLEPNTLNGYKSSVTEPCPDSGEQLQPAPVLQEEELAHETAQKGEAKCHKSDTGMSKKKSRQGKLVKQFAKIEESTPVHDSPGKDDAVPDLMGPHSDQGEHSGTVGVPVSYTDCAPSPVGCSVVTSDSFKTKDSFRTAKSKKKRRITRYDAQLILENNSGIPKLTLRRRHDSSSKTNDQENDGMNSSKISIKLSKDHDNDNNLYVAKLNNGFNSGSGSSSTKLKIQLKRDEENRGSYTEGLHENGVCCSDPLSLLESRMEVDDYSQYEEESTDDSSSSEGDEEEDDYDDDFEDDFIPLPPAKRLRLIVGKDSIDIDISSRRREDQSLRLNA", "assay": "TR-FRET SAH SUV420H1 enzyme inhibition assay", "type": "biochemical", "details": "Histone Peptide H4(8-30)me1 and SAM, overnight at room temp, TR-FRET detection of SAH, read-out: TR-FRET SAH_SUV420H1 IC50", "outline": "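SUV420H1 (90 nM) preincubated 30 min with compound (3-fold dilutions, 50 to 0.00075 μM), then H4(8-30)me1 peptide 5 nM and SAM 4 nM added, overnight at room temp. SAH product detected by TR-FRET with Tb anti-SAH antibody and Oregon Green-SAH in RIPA buffer, 4 h; IC50 from Hill fit, asymptotes fixed 0-100%.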", "units": {"IC50": "nM"}, "values": [{"compound": "Cn1cncc1C(=O)NCc1cc2cc(Cl)cc(Cn3cnc4c(N)ncnc43)c2[nH]1", "note": "[Example 153, N-({7-[(6-amino-9H-purin-9-yl)methyl]-5-chloro-1H-indol-2-yl}methyl)-1-methyl-1H-imidazole-5-carboxamide]", "IC50": 4400}, {"compound": "Cc1nnccc1C(=O)NCc1cc2cc(C3=CCC(F)(F)CC3)cc(Cn3cnc4c(N)ncnc43)c2[nH]1", "note": "[Example 201, N-({7-[(6-amino-9H-purin-9-yl)methyl]-5-(4,4-difluorocyclohex-1-en-1-yl)-1H-indol-2-yl}methyl)-3-methylpyridazine-4-carboxamide]", "IC50": 58.9}, {"compound": "N#Cc1cccc(C(=O)NCc2cc3cc(Cl)cc(Cn4cnc5c(N)ncnc54)c3[nH]2)c1", "note": "[Example 273, N-({7-[(6-amino-9H-purin-9-yl)methyl]-5-chloro-1H-indol-2-yl}methyl)-3-cyanobenzamide]", "IC50": 1500}, {"compound": "N#Cc1ccc(C(=O)NCc2cc3cc(C4=CCC(F)(F)CC4)cc(Cn4cnc5c(N)ncnc54)c3[nH]2)c(Cl)c1", "note": "[Example 278, N-({7-[(6-amino-9H-purin-9-yl)methyl]-5-(4,4-difluorocyclohex-1-en-1-yl)-1H-indol-2-yl}methyl)-2-chloro-4-cyanobenzamide]", "IC50": 67.4}, {"compound": "CC(C)C(=O)NCc1cc2cc(Cl)cc(Cn3cnc4c(N)ncnc43)c2[nH]1", "note": "[Example 99, N-({7-[(6-amino-9H-purin-9-yl)methyl]-5-chloro-1H-indol-2-yl}methyl)-2-methylpropanamide]", "IC50": 25100}, {"compound": "CS(=O)(=O)c1ccc(-c2cc(Cn3cnc4c(N)ncnc43)c3[nH]c(CN)cc3c2)cc1", "note": "[Example 37, 9-({2-(aminomethyl)-5-[4-(methylsulfonyl)phenyl]-1H-indol-7-yl}methyl)-9H-purin-6-amine]", "IC50": 321}, {"compound": "Cc1nnccc1C(=O)NCc1cc2cc(C3=CCN(C(=O)OC(C)(C)C)CC3)cc(Cn3cnc4c(N)ncnc43)c2[nH]1", "note": "[Example 204, tert-butyl 4-{7-[(6-amino-9H-purin-9-yl)methyl]-2-({[(3-methylpyridazin-4-yl)carbonyl]amino}methyl)-1H-indol-5-yl}-3,6-dihydropyridine-1(2H)-carboxylate]", "IC50": 53.2}, {"compound": "CC(=O)N1CC=C(c2cc(Cn3cnc4c(N)ncnc43)c3[nH]c(CNC(=O)c4cc(C)nnc4C)cc3c2)CC1", "note": "[Example 237, N-({5-(1-acetyl-1,2,3,6-tetrahydropyridin-4-yl)-7-[(6-amino-9H-purin-9-yl)methyl]-1H-indol-2-yl}methyl)-3,6-dimethylpyridazine-4-carboxamide]", "IC50": 28.8}, {"compound": "Cc1cc(C(=O)NCc2cc3cc(C4=CCC(F)(F)CC4)cc(Cn4cnc5c(N)ncnc54)c3[nH]2)c(C)nn1", "note": "[Example 236, N-({7-[(6-amino-9H-purin-9-yl)methyl]-5-(4,4-difluorocyclohex-1-en-1-yl)-1H-indol-2-yl}methyl)-3,6-dimethylpyridazine-4-carboxamide]", "IC50": 33.8}, {"compound": "Cc1nnccc1C(=O)NCc1cc2cc(Cl)cc(Cn3cnc4c(N)ncnc43)c2[nH]1", "note": "[Example 199, N-({7-[(6-amino-9H-purin-9-yl)methyl]-5-chloro-1H-indol-2-yl}methyl)-3-methylpyridazine-4-carboxamide]", "IC50": 93.9}, {"compound": "Cc1ccc(-c2cc(Cn3cnc4c(N)ncnc43)c3[nH]c(CN)cc3c2)cc1", "note": "[Example 30, 9-{[2-(aminomethyl)-5-(4-methylphenyl)-1H-indol-7-yl]methyl}-9H-purin-6-amine]", "IC50": 1170}, {"compound": "NCc1cc2cc(-c3cccc(N4CCOCC4)c3)cc(Cn3cnc4c(N)ncnc43)c2[nH]1", "note": "[Example 52, 9-({2-(aminomethyl)-5-[3-(morpholin-4-yl)phenyl]-1H-indol-7-yl}methyl)-9H-purin-6-amine]", "IC50": 244}, {"compound": "Cc1cc(C(=O)NCc2cc3cc(C4=CCNCC4)cc(Cn4cnc5c(N)ncnc54)c3[nH]2)c(C)nn1", "note": "[Example 235, N-({7-[(6-amino-9H-purin-9-yl)methyl]-5-(1,2,3,6-tetrahydropyridin-4-yl)-1H-indol-2-yl}methyl)-3,6-dimethylpyridazine-4-carboxamide]", "IC50": 49.2}, {"compound": "Nc1ncnc2c1ncn2Cc1cc(Cl)cc2cc(CNC(=O)c3cnccn3)[nH]c12", "note": "[Example 193, N-({7-[(6-amino-9H-purin-9-yl)methyl]-5-chloro-1H-indol-2-yl}methyl)pyrazine-2-carboxamide]", "IC50": 20000}, {"compound": "Nc1ncnc2c1ncn2Cc1cc(Cl)cc2cc(CNC(=O)c3ccc4snnc4c3)[nH]c12", "note": "[Example 329, N-({7-[(6-amino-9H-purin-9-yl)methyl]-5-chloro-1H-indol-2-yl}methyl)-1,2,3-benzothiadiazole-5-carboxamide]", "IC50": 410}, {"compound": "Cc1nc2cc(C(=O)NCc3cc4cc(Cl)cc(Cn5cnc6c(N)ncnc65)c4[nH]3)ccc2n1C", "note": "[Example 367, N-({7-[(6-amino-9H-purin-9-yl)methyl]-5-chloro-1H-indol-2-yl}methyl)-1,2-dimethyl-1H-benzimidazole-5-carboxamide]", "IC50": 591}, {"compound": "N#Cc1c[nH]c2ccc(C(=O)NCc3cc4cc(Cl)cc(Cn5cnc6c(N)ncnc65)c4[nH]3)cc12", "note": "[Example 369, N-({7-[(6-amino-9H-purin-9-yl)methyl]-5-chloro-1H-indol-2-yl}methyl)-3-cyano-1H-indole-5-carboxamide]", "IC50": "> 50000"}, {"compound": "Cc1cccc(Cl)c1CNCc1cc2cc(Cl)cc(Cn3cnc4c(N)ncnc43)c2[nH]1", "note": "[Example 243]", "IC50": 5460}, {"compound": "Nc1ncnc2c1ncn2Cc1cc(Cl)cc2cc(CNCc3c(F)cccc3Cl)[nH]c12", "note": "[Example 215, 9-[(5-chloro-2-{[(2-chloro-6-fluorobenzyl)amino]methyl}-1H-indol-7-yl)methyl]-9H-purin-6-amine]", "IC50": 3910}, {"compound": "NCc1cc2cc(-c3ccc(F)cc3)cc(Cn3cnc4c(N)ncnc43)c2[nH]1", "note": "[Example 26, 9-{[2-(aminomethyl)-5-(4-fluorophenyl)-1H-indol-7-yl]methyl}-9H-purin-6-amine]", "IC50": 474}, {"compound": "N#Cc1cccc(-c2cc(Cn3cnc4c(N)ncnc43)c3[nH]c(CN)cc3c2)c1", "note": "[Example 39, 3-{2-(aminomethyl)-7-[(6-amino-9H-purin-9-yl)methyl]-1H-indol-5-yl}benzonitrile]", "IC50": 345}, {"compound": "NCc1cc2c(-c3cccnc3)ccc(Cn3cnc4c(N)ncnc43)c2[nH]1", "note": "[Example 69, 9-{[2-(aminomethyl)-4-(pyridin-3-yl)-1H-indol-7-yl]methyl}-9H-purin-6-amine]", "IC50": 663}, {"compound": "CC(C)n1ncc2cc(C(=O)NCc3cc4cc(Cl)cc(Cn5cnc6c(N)ncnc65)c4[nH]3)cnc21", "note": "[Example 372, N-({7-[(6-amino-9H-purin-9-yl)methyl]-5-chloro-1H-indol-2-yl}methyl)-1-(propan-2-yl)-1H-pyrazolo[3,4-b]pyridine-5-carboxamide]", "IC50": 970}, {"compound": "COc1cccc(-c2ccc(Cn3cnc4c(N)ncnc43)c3[nH]c(CN)cc23)c1", "note": "[Example 79, 9-{[2-(aminomethyl)-4-(3-methoxyphenyl)-1H-indol-7-yl]methyl}-9H-purin-6-amine]", "IC50": 548}, {"compound": "CS(=O)(=O)Nc1ccc(-c2ccc(Cn3cnc4c(N)ncnc43)c3[nH]c(CN)cc23)cc1", "note": "[Example 85, N-(4-{2-(aminomethyl)-7-[(6-amino-9H-purin-9-yl)methyl]-1H-indol-4-yl}phenyl)methanesulfonamide]", "IC50": 605}, {"compound": "Cn1ccc2cc(C(=O)NCc3cc4cc(Cl)cc(Cn5cnc6c(N)ncnc65)c4[nH]3)ccc21", "note": "[Example 366, N-({7-[(6-amino-9H-purin-9-yl)methyl]-5-chloro-1H-indol-2-yl}methyl)-1-methyl-1H-indole-5-carboxamide]", "IC50": 2870}, {"compound": "Cc1nc2ccc(C(=O)NCc3cc4cc(Cl)cc(Cn5cnc6c(N)ncnc65)c4[nH]3)cc2o1", "note": "[Example 359, N-({7-[(6-amino-9H-purin-9-yl)methyl]-5-chloro-1H-indol-2-yl}methyl)-2-methyl-1,3-benzoxazole-6-carboxamide]", "IC50": 4280}, {"compound": "CNc1ccccc1C(=O)NCc1cc2cc(Cl)cc(Cn3cnc4c(N)ncnc43)c2[nH]1", "note": "[Example 275, N-({7-[(6-amino-9H-purin-9-yl)methyl]-5-chloro-1H-indol-2-yl}methyl)-2-(methylamino)benzamide]", "IC50": 13200}, {"compound": "Nc1ncnc2c1ncn2Cc1cc(Cl)cc2cc(CNC(=O)Cc3cccc(Cl)c3)[nH]c12", "note": "[Example 252, N-({7-[(6-amino-9H-purin-9-yl)methyl]-5-chloro-1H-indol-2-yl}methyl)-2-(3-chlorophenyl)acetamide]", "IC50": 2140}, {"compound": "Nc1ncnc2c1ncn2Cc1cc(Cl)cc2cc(CNC(=O)c3c(F)cccc3Cl)[nH]c12", "note": "[Example 227, N-({7-[(6-amino-9H-purin-9-yl)methyl]-5-chloro-1H-indol-2-yl}methyl)-2-chloro-6-fluorobenzamide]", "IC50": 790}, {"compound": "N#Cc1ccccc1C(=O)NCc1cc2cc(Cl)cc(Cn3cnc4c(N)ncnc43)c2[nH]1", "note": "[Example 274, N-({7-[(6-amino-9H-purin-9-yl)methyl]-5-chloro-1H-indol-2-yl}methyl)-2-cyanobenzamide]", "IC50": 11300}, {"compound": "COc1cc(C#N)ccc1CNCc1cc2cc(Cl)cc(Cn3cnc4c(N)ncnc43)c2[nH]1", "note": "[Example 311, 4-{[({7-[(6-amino-9H-purin-9-yl)methyl]-5-chloro-1H-indol-2-yl}methyl)amino]methyl}-3-methoxybenzonitrile]", "IC50": 3240}, {"compound": "NCc1cc2cc(Cl)cc(Cn3cnc4c(N)ncnc43)c2[nH]1", "note": "[Example 9, 9-{[2-(aminomethyl)-5-chloro-1H-indol-7-yl]methyl}-9H-purin-6-amine]", "IC50": 1170}, {"compound": "C=CC(=O)NCc1cc2cc(Cl)cc(Cn3cnc4c(N)ncnc43)c2[nH]1", "note": "[Example 93, N-({7-[(6-amino-9H-purin-9-yl)methyl]-5-chloro-1H-indol-2-yl}methyl)prop-2-enamide]", "IC50": 9730}, {"compound": "4-{[({7-[(6-amino-9H-purin-9-yl)methyl]-5-chloro-1H-indol-2-yl}methyl)amino]methyl}-N,N-dimethylbenzamide [Example 318]", "IC50": 3490}]}]}
